The source of these data is US8962611B2, “Substituted imidazopyridines as HDM2 inhibitors” (Merck Sharp & Dohme Corp., priority 2012, dated 2015).

Each structure is given as a SMILES string.

The experiment addresses HDM2 (residues 17 to 125) (Homo sapiens (Human), UniProt Q00987). Put plainly: HDM2 FRET assay (inhibition of p53 peptide binding to HDM2). To be noted: read-out: FRET IC50; 0.5 nM HDM2, 3 nM FITC peptide, two hour incubation; values rounded to the nearest integer.

Sequence of HDM2 (residues 17 to 125) (Q00987 17-125): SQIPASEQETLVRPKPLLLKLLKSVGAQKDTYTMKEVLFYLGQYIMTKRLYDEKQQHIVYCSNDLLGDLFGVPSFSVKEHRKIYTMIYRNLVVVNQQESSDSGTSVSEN
From the text: Methods: An HDM2 FRET assay was developed to assess the compounds' inhibitory activity towards binding of p53 protein. […] Ratio of em520/em495 was used to calculate % inhibition and to obtain IC50 with 4-parameter logistic equation.
Concentration of compound was plotted against em520/Cem495 ratio signal. To generate IC50 values, the dose-response curves were fitted to a standard sigmoidal curve and IC50 values were derived by nonlinear regression analysis.

In general, IC50 refers to the concentration needed to halve the response being measured. On to `C[C@H]1CC[C@H](Cn2c(N3CCC[C@H]3c3nccs3)nc3cc(-c4noc(=O)[nH]4)nc(-c4cncc(Cl)c4)c32)CC1` [Example 3.81, 3-{4-(5-chloropyridin-3-yl)-3-[(trans-4-methylcyclohexyl)methyl]-2-[(2S)-2-(1,3-thiazol-2-yl)pyrrolidin-1-yl]-3H-imidazo[4,5-c]pyridin-6-yl}-1,2,4-oxadiazol-5(4H)-one], for which the IC50 is less than 1 nM.
